Measured values as given in ChEMBL document CHEMBL1152283, “Design at the atomic level: generation of novel hybrid biaryloxazolidinones as promising new antibiotics” (Bioorg Med Chem Lett, 2008).
≈ marks a conversion by molar mass, not a printed value.

Experiments:
Haemophilus influenzae [1] = assay: Antimicrobial activity against Haemophilus influenzae RD1 by NCCLS method; format: functional
Streptococcus pneumoniae = assay: Antimicrobial activity against Streptococcus pneumoniae 02J1175 expressing mef(A) gene by NCCLS method; format: functional
Streptococcus pyogenes = assay: Antimicrobial activity against Streptococcus pyogenes Msr 610 expressing erm(B) gene by NCCLS method; format: functional
Haemophilus influenzae [2] = assay: Antimicrobial activity against Haemophilus influenzae 895 (AcrB-KO) by NCCLS method; format: functional
Enterococcus faecalis = assay: Antimicrobial activity against linezolid-resistant Enterococcus faecalis P5 by NCCLS method; format: functional
Escherichia coli [3] = assay: Inhibition of protein synthesis in Escherichia coli by translation assay
Escherichia coli [4] = assay: Inhibition of protein synthesis in Escherichia coli S30 extract by translation assay; format: functional

| IC50 (Escherichia coli [4]) [nM] | Structure (SMILES) | MIC (Haemophilus influenzae [1]) [µg/mL] | MIC (Streptococcus pneumoniae) [µg/mL] | MIC (Streptococcus pyogenes) [µg/mL] | MIC (Haemophilus influenzae [2]) [µg/mL] | MIC (Enterococcus faecalis) [µg/mL] | IC50 (Escherichia coli [3]) [nM] |
| --- | --- | --- | --- | --- | --- | --- | --- |
|  | CC(=O)NC[C@H]1CN(c2ccc(/C=C/CCCNC(=O)/C=C/c3c(C)[nH]c(=O)[nH]c3=O)c(F)c2)C(=O)O1 | > 128 | 1 (≈ 1.95 µM) | 1 (≈ 1.95 µM) | 1 (≈ 1.95 µM) | 32 (≈ 62.3 µM) | 30 |
|  | CC(=O)NC[C@H]1CN(c2ccc(/C=C/CCCNC(=O)CCc3cccnc3)c(F)c2)C(=O)O1 | > 128 | 2 (≈ 4.27 µM) | 2 (≈ 4.27 µM) | 8 (≈ 17.1 µM) | 32 (≈ 68.3 µM) | 16000 |
| 260 | CC(=O)NC[C@H]1CN(c2ccc(N3CCC(CNC(=O)/C=C/c4c(C)[nH]c(=O)[nH]c4=O)CC3)c(F)c2)C(=O)O1 | > 128 | 4 (≈ 7.37 µM) | 4 (≈ 7.37 µM) | 8 (≈ 14.7 µM) |  |  |
|  | CC(=O)NC[C@H]1CN(c2ccc(-c3ccc(CNC(=O)/C=C/c4c(C)[nH]c(=O)[nH]c4=O)cc3)c(F)c2)C(=O)O1 | > 128 | ≤ 0.25 | ≤ 0.25 | ≤ 0.25 | 16 (≈ 29.9 µM) | 30 |
|  | CC(=O)NC[C@H]1CN(c2ccc(N3CCOCC3)c(F)c2)C(=O)O1 [LINEZOLID] | 16 (≈ 47.4 µM) |  | 1 (≈ 2.96 µM) | 8 (≈ 23.7 µM) | 32 (≈ 94.9 µM) |  |
|  | CSC[S@@+]([O-])CC(CO)NC(=O)/C=C/c1c(C)[nH]c(=O)[nH]c1=O (some centres undefined) [SPARSOMYCIN] | 8 (≈ 22.1 µM) | 2 (≈ 5.53 µM) | 2 (≈ 5.53 µM) | 8 (≈ 22.1 µM) | > 128 | ≤ 20 |
|  | CC(=O)NC[C@H]1CN(c2ccc(-c3ccc(CNC(=O)CCc4cccnc4)cc3)c(F)c2)C(=O)O1 | > 128 | 0.5 (≈ 1.02 µM) | 0.5 (≈ 1.02 µM) | 2 (≈ 4.08 µM) | 16 (≈ 32.6 µM) | 580 |
